Data set [1] concerns C neoformans mature biofilms. Set-up: method as in Martinez and Casadevall, 2006. As to conditions: strains ATCC 24067, ATCC B3501 and H99; ref Martinez and Casadevall, 2006; cited from earlier work.
Data set [2] deals with Cryptococcus neoformans biofilm. The experiment in a line: Checkerboard assay on 72-h biofilms. Type of data set: cell-based. As to conditions: 72-h biofilm. As to the method: The antifungal effect of BTU-01 combined with AmB was evaluated using the checkerboard broth microdilution assay, according to [Scott et al. (1995)]. […] The Fractional Inhibitory Concentration (FIC) of each compound was determined by the ratio of the MIC obtained when the compounds were tested in combination and the MIC of the compounds tested individually. […] Untreated and treated biofilms were incubated at 37°C for further 24 h, and then washed with saline. The biofilm viability was analyzed by the MTT reduction assay as described above. […] The checkerboard assays were performed to analyze the effect of the combination with BTU-01 and AmB on 72-h biofilms. The results of the combination were interpreted using the FICI as described previously.

In data set [3] the test system is Cryptococcus neoformans. The experiment in a line: Broth microdilution MIC and MFC on planktonic cells. The data set is classed as cell-based. As to the method:
Cryptococcus neoformans ATCC 34872 (serotype A), C. neoformans ATCC 66031 (serotype D), and four C. neoformans human isolates (Table 1) belonging to the microbial collection of the Laboratório de Biologia Molecular de Microrganismos of Universidade Estadual de Londrina (UEL), Londrina, Paraná, Brazil, were included in the present study. Yeasts were cultivated in Sabouraud dextrose (SD) agar at 37°C for 48 h and stored at 4°C. For the experiments, five colonies were transferred to SD broth and incubated under the same conditions. Cells were then centrifuged (10,000 × g for 1 min) and resuspended in 0.85% NaCl solution (saline) to achieve turbidity equivalent to 0.5 McFarland standard using the DensiCHEK™ PLUS colorimeter (bioMérieux), which corresponds to approximately 1.0–2.0 × 10^6 colony forming units (CFUs)/mL (standard fungal suspension). The fungal suspension was diluted in a culture medium to achieve the inoculum used in each assay. The study protocol was in accordance with the ethics committee of the UEL. The patients signed a written informed consent form agreeing with this publication (CAAE number 57452322.2.0000.5231).
Minimal inhibitory concentrations (MIC) of BTU-01 and AmB were determined by the broth microdilution method ([CLSI, 2017]). An inoculum (100 μL) of yeast cells (0.5–2.5 × 10^3 CFU/mL) was added into the wells of a U-bottom 96-well microtiter plate (Techno Plastic Products, Switzerland) containing twofold serial dilutions of BTU-01 (1.95–1000.0 μg/mL) and AmB (0.031–16.0 μg/mL) in RPMI-MOPS. Wells containing medium or medium plus DMSO 1% with or without the fungal cells were used as growth and sterility controls, respectively. Candida parapsilosis ATCC 22019 was used as quality control. […] The results of AmB were interpreted using the epidemiological cut-off values proposed in [Espinel-Ingroff et al. (2012)]. To determine the minimal fungicidal concentration (MFC), 10 μL from the wells without visible growth was transferred onto SD agar ([Espinel-Ingroff et al., 2002]), and incubated at 37°C for 48 h. The MFC was determined as the lowest concentration capable of reducing the CFU counts to zero.
A general note: Dilution methods test growth across graded concentrations, often in twofold steps.

For data set [4], the system named is VERO-CCL81. The experiment in a line: Cytotoxicity, MTT reduction assay. To be noted: SI = CC90/MIC, MIC 62.5 μg/mL. Type of data set: cell-based. As to the method: (§1) The effect of BTU-01 was analyzed on mammalian epithelial cell lines [HEp-2 CCL-23™ (ATCC), LLC-MK2, VERO CCL81 and HeLa (Merck, Brazil)], and the cytotoxicity was evaluated as described by [Longhi et al. (2016)] with modifications. Briefly, cells were cultured in Dulbecco’s Modified Eagle’s medium (DMEM) supplemented with 10% fetal bovine serum (Invitrogen, Brazil), 2 mM L-glutamine, 100 IU/mL penicillin, 100 μg/mL streptomycin, 1% tylosin in flat-bottomed 96-well microtiter plates, in 5% CO2 at 37°C for 48 h. Then, the medium was carefully removed and fresh medium containing twofold serially diluted BTU-01 (0.095–500.0 μg/mL) was added. The cells were incubated for further 24 h under the same conditions. Cell viability was analyzed by the MTT reduction assay according to the manufacturer’s recommendation. The concentration of the compound needed to inhibit the viable cells up to 50 and 90% by regression analysis corresponds to the 50% (CC50) and 90% (CC90) cytotoxic concentrations, respectively.
(§2) The concentration of BTU-01 capable of causing 90% of hemolysis/cytotoxicity was used to calculate the selectivity index (SI) using the following equation: SI = CC90/MIC.
A general note: Formazan colour is commonly taken as a measure of viable cells.

Data set [5] in a line: Cytotoxicity, MTT reduction assay. The data set is classed as cell-based. To be noted: 24 h, MTT. As for the experimental part: as §1, §2
The subject of data set [6] is HeLa. The experiment in a line: Cytotoxicity, MTT reduction assay. The data set is classed as cell-based. As to conditions: SI = CC90/MIC, MIC 62.5 μg/mL. As for the experimental part:
as §1, §2

Data set [7] deals with LLC-MK2. The experiment in a line: Cytotoxicity, MTT reduction assay. As to conditions: SI = CC90/MIC, MIC 62.5 μg/mL. Type of data set: cell-based. As to the method: as §1, §2
Data set [8] has as its system human erythrocytes. The experiment in a line: Hemolysis assay. Type of data set: cell-based. To be noted: estimated from the highest concentration tested; all cryptococcal strains. As for the experimental part:
The cytotoxicity of BTU-01 (1.95–1000.0 μg/mL) alone and combined with AmB (0.015–16.0 μg/mL) was evaluated on human erythrocytes. Blood from a healthy donor was collected according to the Declaration of Helsinki principles, defibrinated and an erythrocytes suspension (3%) was prepared in 5% glycosylated saline. A total of 100 μL of the erythrocytes suspension was incubated for 3 h at 37°C in wells of U-bottom 96-well polystyrene plates containing different concentrations of the compounds. Wells without the compounds and with 1% Triton X-100 were used as negative and positive hemolysis controls, respectively. The OD of the supernatant was determined at 550 nm with a microtiter plate reader (Synergy HT, BioTek, USA). The percentage of hemolysis was calculated by comparison with the positive control ([Izumi et al., 2012]).
as §2

The test system of data set [9] is HEp-2 CCL-23. The experiment in a line: Cytotoxicity, MTT reduction assay. Type of data set: cell-based, human. As to conditions: SI = CC90/MIC, MIC 62.5 μg/mL. As to the method: as §1, §2
The nature of data set [10]: Cytotoxicity, MTT reduction assay. Type of data set: cell-based, human. As to conditions: human, HEp-2 CCL-23 cells, 24 h, MTT. As to the method: as §1, §2
Setting [11] is: Cryptococcus neoformans, 72 h, C. neoformans 1172; planktonic cells; 72 h; read-out: MIC.
[12] abbreviates: Cryptococcus neoformans, 72 h, C. neoformans 90889; planktonic cells; 72 h; read-out: MIC.
Setting [13] is: Cryptococcus neoformans, 72 h, C. neoformans CN01; planktonic cells; 72 h; read-out: MIC.
[14] abbreviates: Cryptococcus neoformans, 72 h, C. neoformans CN12; planktonic cells; 72 h; read-out: MIC.
Setting [15] is: Cryptococcus neoformans, ATCC34872, 72 h, C. neoformans ATCC 34872; planktonic cells; 72 h; read-out: MIC.
The mark [16] stands for this setting: Cryptococcus neoformans, ATCC66031, 72 h, C. neoformans ATCC 66031; planktonic cells; 72 h; read-out: MIC.
The mark [17] stands for this setting: African green monkey, VERO CCL81 cells.

Data on two compounds can be found in PMC10028264, “Synergistic antifungal interaction of N-(butylcarbamothioyl) benzamide and amphotericin B against Cryptococcus neoformans” (Frontiers in Microbiology, 2023).

The structures appear in SMILES notation. In brackets after ≈: the same amount, converted by molar mass. Where two headings read alike, the source gives them in different places.

As for `C[C@@H]1[C@H](O)[C@@H](C)/C=C/C=C/C=C/C=C/C=C/C=C/C=C/[C@H](O[C@@H]2O[C@H](C)[C@@H](O)[C@H](N)[C@@H]2O)C[C@@H]2O[C@](O)(C[C@@H](O)C[C@@H](O)[C@H](O)CC[C@@H](O)C[C@@H](O)CC(=O)O[C@H]1C)C[C@H](O)[C@H]2C(=O)O` [Amphotericin B, amphotericin B], in data set [1], the “concentration inhibiting metabolic activity of mature biofilms” value is recorded as “higher than 2.0 μg/mL”. For the same compound, the “reduction in SMIC80 value in combination” value in data set [2] (1172 strain) and in data set [2] (ATCC 34872) was 8 fold each time. The MIC (as a rule, the least concentration at which growth counts as inhibited) is 0.25 µg/mL (≈ 0.271 µM) in data set [3] (C. neoformans 1172; planktonic cells; 72 h; listed as AmB); 0.25 µg/mL (≈ 0.271 µM) in data set [3] (C. neoformans ATCC 34872; planktonic cells; 72 h; listed as AmB); 0.25 µg/mL (≈ 0.271 µM) in data set [3] (setting [11]); 0.25 µg/mL (≈ 0.271 µM) in data set [3] (setting [12]); 0.125 µg/mL (≈ 0.135 µM) in data set [3] (setting [13]); 0.125 µg/mL (≈ 0.135 µM) in data set [3] (setting [14]). Besides, the minimum inhibitory concentration (MIC) in [3] (setting [15]) came to 0.25 µg/mL (≈ 0.271 µM); in data set [3] (setting [16]), 0.125 µg/mL (≈ 0.135 µM). The MFC was determined as 0.5 µg/mL (≈ 0.541 µM) in data set [3] (C. neoformans 90889; planktonic cells; 72 h); 0.5 µg/mL (≈ 0.541 µM) in [3] (C. neoformans CN01; planktonic cells; 72 h); 0.5 µg/mL (≈ 0.541 µM) in [3] (C. neoformans CN12; planktonic cells; 72 h); 0.5 µg/mL (≈ 0.541 µM) in data set [3] (Cryptococcus neoformans, ATCC34872; C. neoformans ATCC 34872; planktonic cells; 72 h; read-out: MFC); 0.5 µg/mL (≈ 0.541 µM) in data set [3] (Cryptococcus neoformans, ATCC66031; C. neoformans ATCC 66031; planktonic cells; 72 h; read-out: MFC); 0.5 µg/mL (≈ 0.541 µM) in data set [3] (Cryptococcus neoformans; C. neoformans 1172; planktonic cells; 72 h; read-out: MFC). For the same compound, in [3] (epidemiological cut-off values of Espinel-Ingroff et al., 2012; all strains), the “susceptibility of the strains to the antifungal” value is given as “susceptible”. For the same compound, the “MFC, range over all C. neoformans strains” value in data set [3] (planktonic cells; all six strains) turned out to be 0.5 µg/mL (≈ 0.541 µM).

With `CCCCNC(=S)NC(=O)c1ccccc1` [BTU-01, N-(butylcarbamothioyl) benzamide], the “reduction in SMIC80 value in combination” value was determined as 128 fold in data set [2] (1172 strain) and 16 fold in data set [2] (ATCC 34872). Further, the SI is given as 3.9 in [4]; 2.5 in [6]; 2.3 in [7]; “greater than 16” in data set [8]; 3.9 in data set [9]. The cytotoxic concentration (CC50) – broadly, the concentration giving 50% cytotoxicity – at 24 h in data set [5] (setting [17]) amounted to 121 µg/mL (≈ 513 µM); in [5] (human, HeLa cells) it was 83.8 µg/mL (≈ 355 µM); in data set [5] (rhesus monkey, LLC-MK2 cells), 71.7 µg/mL (≈ 303 µM); in data set [10] it was 104 µg/mL (≈ 441 µM). The CC90 at 24 h in data set [5] (setting [17]) came out at 244 µg/mL (≈ 1030 µM); in data set [5] (human, HeLa cells), 154 µg/mL (≈ 650 µM); in data set [5] (rhesus monkey, LLC-MK2 cells) it was 143 µg/mL (≈ 603 µM); in [10], 245 µg/mL (≈ 1040 µM). The MFC in [3] (Cryptococcus neoformans, 72 h, C. neoformans 1172; planktonic cells; 72 h; read-out: MFC) is 125 µg/mL (≈ 529 µM); in data set [3] (Cryptococcus neoformans, 72 h, C. neoformans 90889; planktonic cells; 72 h; read-out: MFC) it was 250 µg/mL (≈ 1060 µM); in [3] (Cryptococcus neoformans, 72 h, C. neoformans CN01; planktonic cells; 72 h; read-out: MFC), 500 µg/mL (≈ 2120 µM); in [3] (Cryptococcus neoformans, 72 h, C. neoformans CN12; planktonic cells; 72 h; read-out: MFC), > 1000 µg/mL; in data set [3] (Cryptococcus neoformans, ATCC34872, 72 h, C. neoformans ATCC 34872; planktonic cells; 72 h; read-out: MFC), 125 µg/mL (≈ 529 µM); in data set [3] (Cryptococcus neoformans, ATCC66031, 72 h, C. neoformans ATCC 66031; planktonic cells; 72 h; read-out: MFC), 125 µg/mL (≈ 529 µM). Moreover, the minimum inhibitory concentration (MIC) came to 62.5 µg/mL (≈ 264 µM) in data set [3] (setting [11]); 62.5 µg/mL (≈ 264 µM) in data set [3] (setting [12]); 62.5 µg/mL (≈ 264 µM) in data set [3] (setting [13]); 31.2 µg/mL (≈ 132 µM) in data set [3] (setting [14]); 62.5 µg/mL (≈ 264 µM) in data set [3] (setting [15]); 62.5 µg/mL (≈ 264 µM) in data set [3] (setting [16]). Further, the “nature of the antifungal effect” value in data set [3] (from MIC and MFC; all strains) is listed as “fungistatic effect”.
